The test system of series [1] is human cervix carcinoma (HeLa). Description: Cytostatic activity, inhibition of HeLa cell proliferation. Conditions: 96 h, read-out: IC50 HeLa. The class given is cell-based. Here is the method: (§1) The 50% cytostatic inhibitory concentration (IC50) causing a 50% decrease in cell proliferation was determined against murine leukemia L1210, human lymphocyte CEM, human cervix carcinoma HeLa and immortalized human dermal microvacsular endothelial cells (HMEC-1).
(§2) Murine leukemia (L1210), human T-lymphocyte (CEM), human cervix carcinoma (HeLa) and immortalized human dermal microvascular endothelial cells (HMEC-1) were suspended at 300,000–500,000 cells/mL of culture medium, and 100 μL of a cell suspension was added to 100 μL of an appropriate dilution of the test compounds in 200 μL-wells of 96-well microtiter plates. After incubation at 37 °C for two (L1210), three (CEM) or four (HeLa) days, the cell number was determined using a Coulter counter. The IC50 was defined as the compound concentration required to inhibit cell proliferation by 50%.

Series [2] deals with immortalized human dermal microvascular endothelial cells (HMEC-1). Description: Cytostatic activity, inhibition of HMEC-1 cell proliferation. The format is cell-based. Conditions: inhibition of cell proliferation by 50%. On the procedure:
as §1, §2

The subject of another series is human T-lymphocyte (CEM). The experiment in a line: Cytostatic activity, inhibition of CEM cell proliferation. The format is cell-based. Particulars: 72 h, read-out: IC50 CEM. On the procedure: as §1, §2
The test system of series [3] is L1210, CEM, HeLa and HMEC-1 cells. The experiment in a line: Cytostatic activity against the tested cell lines (L1210, CEM, HeLa, HMEC-1), summarised in text. Particulars: highest tested concentration 250 μM, L1210, CEM. The class given is cell-based. On the procedure:
as §1, §2

A further series relates to murine leukemia L1210. Description: Cytostatic activity, inhibition of L1210 cell proliferation. The class given is cell-based. Conditions: Mus musculus, L1210, 48 h, read-out: IC50 L1210. On the procedure: as §1, §2
The test system of series [4] is human cytomegalovirus AD-169 strain. Description: Antiviral activity against human cytomegalovirus AD-169 strain in HEL cell cultures. The format is cell-based. Particulars: Human betaherpesvirus 5, AD169.
A further series deals with human cytomegalovirus. The experiment in a line: Antiviral activity against human cytomegalovirus, strain not given (AD-169 and Davis). The class given is cell-based. Particulars: Human betaherpesvirus 5; range given for four compounds, strain not specified.
Series [5] relates to human cytomegalovirus Davis strain. The experiment in a line: Antiviral activity against human cytomegalovirus Davis strain in HEL cell cultures. The class given is cell-based. Conditions: Human betaherpesvirus 5.
In the next series the test system is TK+ VZV Oka strain. Description: microbe, parasite or virus in culture. The format is cell-based, varicella-zoster virus. Particulars: Human alphaherpesvirus 3, HEL, read-out: Antiviral Activity EC50 TK+ VZV Strain.
The test system of series [6] is human embryonic lung (HEL) cells. Conditions: for Cytotoxicity Cell Morphology MCC: HEL cell cultures, minimum cytotoxic concentration; for cytotoxicity toward uninfected cells: at concentration up to 100 μM.
The next series concerns TK- VZV 07-1 strain. The experiment in a line: microbe, parasite or virus in culture. The class given is cell-based, varicella-zoster virus. Particulars: for EC50: Human alphaherpesvirus 3, HEL, read-out: Antiviral Activity EC50 TK- VZV Strain; for activity toward TK- VZV strain: result in words.

Like-named read-outs stand apart in the source and are kept apart here.

As to `CCOP(=O)(OCC)[C@H]1C[C@H](c2nc3ccccc3c(=O)[nH]2)ON1C` (relative stereo) [trans-11a, Diethyl trans-(2-methyl-5-(4-oxo-3,4-dihydroquinazolin-2-yl)isoxazolidin-3-yl)phosphonate], the 50% inhibitory concentration (IC50) (in [1]; in series [2]; with human T-lymphocyte (CEM); with murine leukemia L1210) was > 250 µM in each case. Further, in series [3], the “inhibition of cell proliferation at the highest tested concentration” value was “did not inhibit cell proliferation”.
In the case of `CCOP(=O)(OCC)[C@H]1C[C@H](c2nc3ccccc3c(=O)n2Cc2ccccc2)ON1C` (relative stereo) [trans-11b/cis-11b (90:10), Diethyl trans-(5-(3-benzyl-4-oxo-3,4-dihydroquinazolin-2-yl)-2-methylisoxazolidin-3-yl)phosphonate], the IC50 in [1] was found to be 82 ± 5 µM; in series [2], 83 ± 16 µM; in the series on human T-lymphocyte (CEM), 28 ± 4 µM; in the series with murine leukemia L1210 it was 49 ± 23 µM. The figures for the half-maximal effective concentration (EC50) (in [4]; in the series with human cytomegalovirus; in series [5]) were 44.7 µM, 27 to 45 µM and > 20 µM, respectively.
Turning to `CCOP(=O)(OCC)[C@H]1C[C@H](c2nc3ccccc3c(=O)n2Cc2ccccc2[N+](=O)[O-])ON1C` (relative stereo) [trans-11c, Diethyl trans-(2-methyl-5-(3-(2-nitrobenzyl)-4-oxo-3,4-dihydroquinazolin-2-yl)isoxazolidin-3-yl)-phosphonate], the EC50 is 46.5 µM with TK+ VZV Oka strain; > 100 µM in series [4]; 27 to 45 µM with human cytomegalovirus; 100 µM in the series on TK- VZV 07-1 strain; 44.7 µM in series [5]. In series [6] (Table 2 (VZV)), the “Cytotoxicity Cell Morphology MCC” value was >100 μM. In addition, the concentration for half-maximal inhibition (IC50) was determined as 97 µM in series [1], 92 ± 1 µM in [2], 76 ± 9 µM with human T-lymphocyte (CEM) and 87 ± 22 µM in the series with murine leukemia L1210.
Turning to `CCOP(=O)(OCC)[C@H]1C[C@H](c2nc3ccccc3c(=O)n2Cc2cccc([N+](=O)[O-])c2)ON1C` (relative stereo) [trans-11d/cis-11d (90:10), Diethyl trans-(2-methyl-5-(3-(3-nitrobenzyl)-4-oxo-3,4-dihydroquinazolin-2-yl)isoxazolidin-3-yl)-phosphonate], the IC50 came to 50 ± 4 µM in [1], 58 µM in series [2], 21 ± 4 µM in the series on human T-lymphocyte (CEM) and 28 ± 11 µM in the series on murine leukemia L1210.
`CCOP(=O)(OCC)[C@H]1C[C@H](c2nc3ccccc3c(=O)n2Cc2ccc([N+](=O)[O-])cc2)ON1C` (relative stereo) [trans-11e/cis-11e (90:10), Diethyl trans-(2-methyl-5-(3-(4-nitrobenzyl)-4-oxo-3,4-dihydroquinazolin-2-yl)isoxazolidin-3-yl)-phosphonate]: the concentration giving a half-maximal response (EC50) is 34.2 µM in the series with TK+ VZV Oka strain; 44.7 µM in series [4]; 27 to 45 µM with human cytomegalovirus; 42.9 µM in the series with TK- VZV 07-1 strain; 20 µM in series [5]. Further, the “Cytotoxicity Cell Morphology MCC” value in [6] (Table 2 (VZV)) turned out to be 100 μM. The IC50 was found to be 76 ± 4 µM in [1], 102 ± 3 µM in series [2], 34 ± 12 µM in the series with human T-lymphocyte (CEM) and 59 ± 32 µM in the series on murine leukemia L1210.
On to `CCOP(=O)(OCC)[C@H]1C[C@H](c2nc3ccccc3c(=O)n2Cc2ccccc2F)ON1C` (relative stereo) [trans-11f/cis-11f (90:10), Diethyl trans-(5-(3-(2-fluorobenzyl)-4-oxo-3,4-dihydroquinazolin-2-yl)-2-methylisoxazolidin-3-yl)-phosphonate], for which the 50% effective concentration (EC50) is 6.84 µM in the series on TK+ VZV Oka strain and > 20 µM in the series with TK- VZV 07-1 strain. Also, the “Cytotoxicity Cell Morphology MCC” value in series [6] (Table 2 (VZV)) is 100 μM. The “cytotoxicity toward uninfected cells” value in series [6] is “without exhibiting cytotoxicity”. Further, the concentration for half-maximal inhibition (IC50) in [1] is 76 ± 11 µM; in series [2], 77 µM; in the series with human T-lymphocyte (CEM), 29 ± 13 µM; in the series with murine leukemia L1210, 33 ± 7 µM. Further, in the series with TK- VZV 07-1 strain, the “activity toward TK- VZV strain” value is on record as “no activity”.
Take `CCOP(=O)(OCC)[C@H]1C[C@H](c2nc3ccccc3c(=O)n2Cc2cccc(F)c2)ON1C` (relative stereo) [trans-11g, Diethyl trans-(5-(3-(3-fluorobenzyl)-4-oxo-3,4-dihydroquinazolin-2-yl)-2-methylisoxazolidin-3-yl)-phosphonate]: the IC50 in [1] was determined as 62 ± 9 µM; in [2] it was 74 ± 3 µM; with human T-lymphocyte (CEM), 26 ± 6 µM; in the series on murine leukemia L1210 it was 35 ± 12 µM. The EC50 in series [4] is > 100 µM; in the series on human cytomegalovirus it was 27 to 45 µM; in series [5], 27.6 µM.
As to `CCOP(=O)(OCC)[C@H]1C[C@H](c2nc3ccccc3c(=O)n2Cc2ccc(F)cc2)ON1C` (relative stereo) [trans-11h, Diethyl trans-(5-(3-(4-fluorobenzyl)-4-oxo-3,4-dihydroquinazolin-2-yl)-2-methylisoxazolidin-3-yl)-phosphonate], the concentration for a half-maximal effect (EC50) was 15.3 µM in the series with TK+ VZV Oka strain and > 20 µM in the series with TK- VZV 07-1 strain. The “Cytotoxicity Cell Morphology MCC” value in [6] (Table 2 (VZV)) came out at 100 μM. In series [6], the “cytotoxicity toward uninfected cells” value is given as “without exhibiting cytotoxicity”. For the same compound, the half-maximal inhibitory concentration (IC50) amounted to 58 ± 5 µM in series [1], 78 ± 1 µM in series [2], 30 ± 12 µM in the series on human T-lymphocyte (CEM) and 26 ± 1 µM in the series with murine leukemia L1210. Further, the “activity toward TK- VZV strain” value with TK- VZV 07-1 strain is on record as “no activity”.
`CCOP(=O)(OCC)[C@H]1C[C@H](c2nc3ccccc3c(=O)n2Cc2ccc(F)cc2F)ON1C` (relative stereo) [trans-11i/cis-11i (97:3), Diethyl trans-(5-(3-(2,4-difluorobenzyl)-4-oxo-3,4-dihydroquinazolin-2-yl)-2-methylisoxazolidin-3-yl)-phosphonate]: the EC50 is 9.44 µM in the series on TK+ VZV Oka strain and > 20 µM in the series on TK- VZV 07-1 strain. In addition, the “Cytotoxicity Cell Morphology MCC” value in series [6] (Table 2 (VZV)) was determined as 100 μM. In series [6], the “cytotoxicity toward uninfected cells” value is reported as “without exhibiting cytotoxicity”. Besides, the IC50 was 55 ± 10 µM in series [1], 67 ± 4 µM in series [2], 24 ± 8 µM with human T-lymphocyte (CEM) and 26 ± 2 µM with murine leukemia L1210. In addition, the “activity toward TK- VZV strain” value in the series on TK- VZV 07-1 strain is given as “no activity”.
As for `CCOP(=O)(OCC)[C@H]1C[C@H](c2nc3ccccc3c(=O)n2C)ON1C` (relative stereo) [trans-11j, Diethyl trans-(2-methyl-5-(3-methyl-4-oxo-3,4-dihydroquinazolin-2-yl)isoxazolidin-3-yl)phosphonate], the 50% inhibitory concentration (IC50) (in series [1]; in [2]; in the series with human T-lymphocyte (CEM); in the series on murine leukemia L1210) was > 250 µM throughout. Further, in [3], the “inhibition of cell proliferation at the highest tested concentration” value is recorded as “did not inhibit cell proliferation”.
On to `O=c1[nH]cc(F)c(=O)[nH]1` [5-Fluorouracil, reference compound], for which the 50% inhibitory concentration (IC50) was found to be 0.54 ± 0.12 µM in series [1] (inhibition of cell proliferation by 50%, four days incubation); 18 ± 5 µM with human T-lymphocyte (CEM) (inhibition of cell proliferation by 50%, three days incubation); 0.33 ± 0.17 µM in the series with murine leukemia L1210 (inhibition of cell proliferation by 50%, two days incubation).
Take `O=c1[nH]c(=O)n([C@H]2C[C@H](O)[C@@H](CO)O2)cc1/C=C/Br` [Brivudin, reference compound]: the EC50 in the series with TK+ VZV Oka strain turned out to be 0.019 µM; with TK- VZV 07-1 strain, 25.6 µM. For the same compound, the “Cytotoxicity Cell Morphology MCC” value in series [6] (Table 2 (VZV)) was >100 μM.
On to `Nc1ccn(C[C@@H](CO)OCP(=O)(O)O)c(=O)n1` [Cidofovir, reference compound], for which the “Cytotoxicity Cell Morphology MCC” value in [6] (Table 3 (HCMV)) is given as >300 μM. Further, the EC50 in [4] came out at 1.49 µM; in [5] it was 0.23 µM.
As for `Nc1nc(O)c2ncn(COC(CO)CO)c2n1` [Ganciclovir, reference compound], in series [6] (Table 3 (HCMV)), the “Cytotoxicity Cell Morphology MCC” value is given as >350 μM. Further, the EC50 was 10.5 µM in series [4] and 0.63 µM in series [5].

As usually defined, the IC50 is the concentration that gives 50% inhibition. As usually defined, the EC50 is the concentration at which the effect is half-maximal.

Values taken from publication PMC6273226, “New Isoxazolidine-Conjugates of Quinazolinones—Synthesis, Antiviral and Cytostatic Activity” (Molecules, 2016).
